Patent US5656726A, “Peptide inhibitors of urokinase receptor activity” (Chiron Corporation, priority 1995, dated 1997)
Read-outs that look alike come from different tables or passages of the source. Peptide text beside a SMILES is read from it.

Target: T1, recombinant human urokinase receptor (truncated, soluble; suPAR) (Homo sapiens, UniProt Q03405)
T1 construct: expressed as a truncated, soluble molecule as described previously for mouse L-cells (Masucci et al., J Biol Chem (1991) 266:8655); made in house
T1 sequence (Q03405 23-299 limits assumed): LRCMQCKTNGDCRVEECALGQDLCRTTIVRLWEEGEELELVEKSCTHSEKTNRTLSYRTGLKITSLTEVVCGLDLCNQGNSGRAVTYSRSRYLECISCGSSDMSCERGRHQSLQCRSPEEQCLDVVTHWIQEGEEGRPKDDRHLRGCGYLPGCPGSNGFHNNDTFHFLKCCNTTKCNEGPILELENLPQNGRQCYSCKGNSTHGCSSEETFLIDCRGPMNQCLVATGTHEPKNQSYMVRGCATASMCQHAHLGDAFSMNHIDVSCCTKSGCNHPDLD
Assay: 125I-ATF competition binding on immobilized soluble recombinant human urokinase receptor
Settings: synthesized peptide, read-out: Affinity

[1] = corrected to 100 pM ATF, 0.3 μg/mL suPAR conditions, corrections about 3 × from previous assay conditions
[2] = assay performed at 100 pM ATF, 0.3 μg/mL suPAR in 200 μL (starred values)

CSCC[C@H](NC(=O)[C@@H](NC(=O)[C@H](CC(N)=O)NC(=O)[C@H](CO)NC(=O)[C@H](CC(C)C)NC(=O)[C@H](Cc1ccccc1)NC(=O)[C@H](Cc1c[nH]c2ccccc12)NC(=O)[C@H](C)NC(=O)[C@H](CCC(=O)O)NC(=O)[C@H](C)N)[C@@H](C)O)C(=O)N[C@@H](CCCCN)C(=O)N[C@@H](C)C(=O)N[C@@H](CC(C)C)C(=O)N[C@@H](CO)C(=O)N[C@@H](C)C(=O)N[C@@H](CCCNC(=N)N)C(=O)N[C@@H](CC(C)C)C(N)=O (H-AEAWFLSNTMKALSARL-NH2)
Kd [1]: 4 µM

CC(C)C[C@H](NC(=O)[C@H](CO)NC(=O)[C@H](CO)NC(=O)[C@H](Cc1ccc(O)cc1)NC(=O)[C@@H](NC(=O)[C@H](Cc1c[nH]cn1)NC(=O)[C@H](CCC(=O)O)NC(=O)[C@H](C)N)[C@@H](C)O)C(=O)N[C@@H](Cc1c[nH]c2ccccc12)C(=O)N[C@@H](CC(=O)O)C(=O)N[C@H](C(=O)N[C@@H](Cc1ccc(O)cc1)C(=O)N[C@@H](CO)C(=O)N1CCC[C@H]1C(=O)N[C@@H](CC(C)C)C(=O)N[C@@H](C)C(=O)N[C@@H](Cc1ccccc1)C(N)=O)[C@@H](C)O (H-AEHTYSSLWDTYSPLAF-NH2)
Kd [2]: 0.35 µM

CC[C@H](C)[C@H](NC(=O)[C@H](CCC(=O)O)NC(=O)[C@H](C)N)C(=O)N[C@@H](CCCCN)C(=O)N[C@H](C(=O)N[C@@H](CC(=O)O)C(=O)N[C@@H](CCC(=O)O)C(=O)N[C@@H](CCCCN)C(=O)N[C@@H](CCSC)C(=O)NCC(=O)N[C@@H](CC(C)C)C(=O)N[C@@H](Cc1c[nH]c2ccccc12)C(=O)N[C@@H](CC(=O)O)C(=O)N[C@@H](CC(C)C)C(=O)N[C@@H](Cc1ccc(O)cc1)C(=O)N[C@@H](CO)C(=O)N[C@@H](CCSC)C(N)=O)[C@@H](C)O (H-AEIKTDEKMGLWDLYSM-NH2)
Kd [2]: 25 µM

CC[C@H](C)[C@H](NC(=O)[C@H](CCC(=O)O)NC(=O)[C@H](C)N)C(=O)N[C@@H](CC(C)C)C(=O)N[C@@H](CC(N)=O)C(=O)N[C@@H](Cc1ccccc1)C(=O)N1CCC[C@H]1C(=O)N[C@@H](CC(C)C)C(=O)N[C@@H](Cc1c[nH]c2ccccc12)C(=O)N[C@@H](Cc1c[nH]cn1)C(=O)N[C@@H](CCC(=O)O)C(=O)N1CCC[C@H]1C(=O)N[C@@H](CC(C)C)C(=O)N[C@@H](Cc1c[nH]c2ccccc12)C(=O)N[C@@H](CO)C(=O)N[C@H](C(=O)N[C@@H](CCC(=O)O)C(N)=O)[C@@H](C)O (H-AEILNFPLWHEPLWSTE-NH2)
Kd [2]: 15 µM

CC[C@H](C)[C@H](NC(=O)[C@H](CCC(=O)O)NC(=O)[C@H](C)N)C(=O)N[C@@H](CO)C(=O)N[C@@H](Cc1ccccc1)C(=O)N[C@@H](CO)C(=O)N[C@@H](CCC(=O)O)C(=O)N[C@@H](CC(C)C)C(=O)N[C@@H](CCSC)C(=O)N[C@@H](Cc1c[nH]c2ccccc12)C(=O)N[C@@H](CC(C)C)C(=O)N[C@@H](CCCNC(=N)N)C(=O)N[C@@H](CO)C(=O)N[C@H](C(=O)N1CCC[C@H]1C(=O)N[C@@H](C)C(=O)N[C@@H](Cc1ccccc1)C(N)=O)[C@@H](C)O (H-AEISFSELMWLRSTPAF-NH2)
Kd [2]: 6 µM

CSCC[C@H](NC(=O)[C@H](Cc1c[nH]c2ccccc12)NC(=O)[C@H](CC(C)C)NC(=O)[C@H](CC(=O)O)NC(=O)[C@H](CC(C)C)NC(=O)[C@H](CCC(=O)O)NC(=O)[C@H](C)N)C(=O)N[C@@H](CCCNC(=N)N)C(=O)N[C@@H](Cc1c[nH]cn1)C(=O)N[C@@H](Cc1ccc(O)cc1)C(=O)N1CCC[C@H]1C(=O)N[C@@H](CC(C)C)C(=O)N[C@@H](CO)C(=O)N[C@@H](Cc1ccccc1)C(=O)N[C@@H](CO)C(=O)N[C@@H](CC(N)=O)C(=O)N[C@@H](CCCNC(=N)N)C(N)=O (H-AELDLWMRHYPLSFSNR-NH2)
Kd [2]: 0.8 µM

CC(C)C[C@H](NC(=O)[C@H](CCC(=O)O)NC(=O)[C@H](C)N)C(=O)N1CCC[C@H]1C(=O)N[C@@H](CCCNC(=N)N)C(=O)N[C@H](C(=O)N[C@@H](CC(N)=O)C(=O)N1CCC[C@H]1C(=O)N[C@H](C(=O)N[C@H](C(=O)N[C@@H](C)C(=O)N[C@H](C(=O)N[C@@H](CCCCN)C(=O)N[C@@H](CC(N)=O)C(=O)N1CCC[C@H]1C(=O)N[C@@H](CO)C(=O)N[C@@H](Cc1ccccc1)C(N)=O)C(C)C)[C@@H](C)O)C(C)C)[C@@H](C)O (H-AELPRTNPVTAVKNPSF-NH2)
Kd [1]: > 50 µM

CC[C@H](C)[C@H](NC(=O)[C@H](Cc1c[nH]c2ccccc12)NC(=O)[C@H](CC(C)C)NC(=O)[C@H](CC(=O)O)NC(=O)[C@H](C)NC(=O)[C@H](CCC(=O)O)NC(=O)[C@H](CO)NC(=O)[C@H](CC(C)C)NC(=O)[C@H](CCC(=O)O)NC(=O)[C@H](C)N)C(=O)N[C@H](C(=O)N[C@@H](Cc1c[nH]c2ccccc12)C(=O)N[C@@H](Cc1ccccc1)C(=O)NCC(=O)N[C@@H](CCSC)C(=O)NCC(=O)N[C@@H](CO)C(N)=O)[C@@H](C)O (H-AELSEADLWITWFGMGS-NH2)
Kd [2]: 20 µM

CC(C)C[C@H](NC(=O)CNC(=O)[C@@H]1CCCN1C(=O)[C@H](CC(N)=O)NC(=O)[C@H](Cc1ccccc1)NC(=O)[C@H](Cc1ccccc1)NC(=O)[C@H](Cc1ccccc1)NC(=O)[C@H](CO)NC(=O)[C@H](Cc1c[nH]c2ccccc12)NC(=O)[C@H](CC(N)=O)NC(=O)[C@H](CC(C)C)NC(=O)[C@H](CC(C)C)NC(=O)[C@H](C)NC(=O)[C@@H]1CCCN1C(=O)[C@H](CCC(=O)O)NC(=O)[C@H](C)N)C(=O)N[C@@H](Cc1c[nH]cn1)C(N)=O (H-AEPALLNWSFFFNPGLH-NH2)
Kd [1]: 3 µM

CSCC[C@H](NC(=O)[C@H](C)NC(=O)[C@H](CC(C)C)NC(=O)[C@@H]1CCCN1C(=O)[C@@H]1CCCN1C(=O)[C@H](CC(C)C)NC(=O)[C@H](CO)NC(=O)[C@H](Cc1ccc(O)cc1)NC(=O)[C@H](CC(C)C)NC(=O)[C@H](CO)NC(=O)[C@H](Cc1c[nH]c2ccccc12)NC(=O)[C@H](CC(C)C)NC(=O)[C@H](CC(=O)O)NC(=O)[C@H](CC(C)C)NC(=O)[C@@H]1CCCN1C(=O)[C@H](CCC(=O)O)NC(=O)[C@H](C)N)C(N)=O (H-AEPLDLWSLYSLPPLAM-NH2)
Kd [1]: 5 µM

CC(C)C[C@H](NC(=O)[C@H](CO)NC(=O)[C@H](CC(C)C)NC(=O)[C@@H]1CCCN1C(=O)[C@H](CCC(=O)O)NC(=O)[C@H](C)N)C(=O)N[C@@H](Cc1ccc(O)cc1)C(=O)N[C@@H](CCC(N)=O)C(=O)N[C@@H](CCCCN)C(=O)N[C@@H](CCCCN)C(=O)N[C@H](C(=O)N[C@@H](CC(C)C)C(=O)N[C@@H](CCCNC(=N)N)C(=O)N[C@@H](Cc1c[nH]cn1)C(=O)N[C@@H](Cc1ccccc1)C(=O)N[C@@H](C)C(=O)N[C@@H](CC(N)=O)C(N)=O)[C@@H](C)O (H-AEPLSLYQKKTLRHFAN-NH2)
Kd [1]: > 50 µM

CSCC[C@H](NC(=O)[C@@H]1CCCN1C(=O)[C@H](CCC(=O)O)NC(=O)[C@H](C)N)C(=O)N1CCC[C@H]1C(=O)N[C@@H](Cc1c[nH]cn1)C(=O)N[C@@H](CO)C(=O)N[C@@H](CC(C)C)C(=O)N[C@@H](CC(N)=O)C(=O)N[C@@H](Cc1ccccc1)C(=O)N[C@@H](CO)C(=O)N[C@@H](CCC(N)=O)C(=O)N[C@@H](Cc1ccc(O)cc1)C(=O)N[C@@H](CC(C)C)C(=O)N[C@@H](Cc1c[nH]c2ccccc12)C(=O)N[C@@H](Cc1ccc(O)cc1)C(=O)N[C@H](C(N)=O)[C@@H](C)O (H-AEPMPHSLNFSQYLWYT-NH2)
Kd [2]: 0.015 µM

CC(C)C[C@H](NC(=O)[C@H](CCCNC(=N)N)NC(=O)[C@H](CC(C)C)NC(=O)[C@@H]1CCCN1C(=O)[C@H](Cc1ccccc1)NC(=O)[C@H](CCC(N)=O)NC(=O)[C@H](Cc1ccc(O)cc1)NC(=O)[C@H](CC(C)C)NC(=O)[C@H](CCC(N)=O)NC(=O)[C@H](Cc1c[nH]c2ccccc12)NC(=O)[C@H](CC(C)C)NC(=O)[C@@H](NC(=O)[C@@H]1CCCN1C(=O)[C@H](CCC(=O)O)NC(=O)[C@H](C)N)[C@@H](C)O)C(=O)N[C@@H](CO)C(=O)NCC(N)=O (H-AEPTLWQLYQFPLRLSG-NH2)
Kd [1]: 5 µM

CC[C@H](C)[C@H](NC(=O)[C@H](CO)NC(=O)[C@@H](NC(=O)[C@H](CC(C)C)NC(=O)[C@@H](NC(=O)[C@@H]1CCCN1C(=O)[C@H](CC(C)C)NC(=O)[C@H](CO)NC(=O)[C@H](CCC(=O)O)NC(=O)[C@H](C)N)[C@@H](C)O)[C@@H](C)O)C(=O)N[C@@H](CC(C)C)C(=O)N[C@@H](Cc1c[nH]c2ccccc12)C(=O)NCC(=O)N[C@@H](CCCCN)C(=O)N[C@@H](CCC(=O)O)C(=O)N[C@@H](CO)C(=O)N[C@H](C(N)=O)C(C)C (H-AESLPTLTSILWGKESV-NH2)
Kd [1]: 7 µM

CC(C)C[C@H](NC(=O)[C@@H](NC(=O)CNC(=O)[C@@H](NC(=O)[C@H](CCC(N)=O)NC(=O)[C@H](CO)NC(=O)[C@H](CCC(=O)O)NC(=O)[C@H](C)N)[C@@H](C)O)[C@@H](C)O)C(=O)N[C@@H](CC(N)=O)C(=O)N[C@H](C(=O)N[C@@H](CC(C)C)C(=O)N[C@@H](Cc1ccccc1)C(=O)N[C@@H](Cc1c[nH]c2ccccc12)C(=O)N[C@@H](CC(N)=O)C(=O)N[C@H](C(=O)N[C@@H](CC(C)C)C(=O)N[C@@H](CCCNC(=N)N)C(N)=O)[C@@H](C)O)[C@@H](C)O (H-AESQTGTLNTLFWNTLR-NH2)
Kd [1]: 7 µM

CC[C@H](C)[C@H](NC(=O)[C@H](CCCNC(=N)N)NC(=O)[C@H](Cc1c[nH]c2ccccc12)NC(=O)[C@H](CC(C)C)NC(=O)[C@H](CO)NC(=O)[C@H](CO)NC(=O)[C@H](CCC(=O)O)NC(=O)[C@H](C)N)C(=O)N[C@@H](Cc1ccccc1)C(=O)N[C@@H](CO)C(=O)N1CCC[C@H]1C(=O)N[C@@H](CO)C(=O)N[C@@H](C)C(=O)N[C@@H](CC(C)C)C(=O)N[C@@H](CCSC)C(=O)N[C@@H](CCSC)C(=O)N[C@@H](CO)C(N)=O (H-AESSLWRIFSPSALMMS-NH2)
Kd [1]: 7 µM

CSCC[C@H](NC(=O)[C@H](CO)NC(=O)[C@@H]1CCCN1C(=O)[C@H](Cc1c[nH]c2ccccc12)NC(=O)[C@H](C)NC(=O)[C@H](Cc1ccc(O)cc1)NC(=O)[C@H](CCCNC(=N)N)NC(=O)[C@@H](NC(=O)[C@H](Cc1c[nH]c2ccccc12)NC(=O)[C@H](CC(C)C)NC(=O)[C@H](CO)NC(=O)[C@H](CO)NC(=O)[C@H](CCC(=O)O)NC(=O)[C@H](C)N)[C@@H](C)O)C(=O)N1CCC[C@H]1C(=O)N[C@@H](CO)C(=O)N[C@@H](Cc1ccc(O)cc1)C(N)=O (H-AESSLWTRYAWPSMPSY-NH2)
Kd [1]: 0.35 µM
